From the NIST ThermoML archive (doi:10.1016/j.fluid.2006.01.030)

Legend:
[1] = Liquid
[2] = xn = mol fraction of the nth substance listed; settings: Liquid, x1 = 1

CCO [ethanol]
viscosity [mPa·s], [1]
Settings | 293.15 K | 313.15 K | 333.15 K | 353.15 K
100 kPa, Capillary tube (Ostwald / Ubbelohde) method | 1.194 | 0.826 | 0.59 | –
20000 kPa, Falling or rolling sphere viscometry | 1.344 | 0.948 | 0.683 | 0.51
40000 kPa, Falling or rolling sphere viscometry | 1.494 | 1.059 | 0.769 | 0.574
60000 kPa, Falling or rolling sphere viscometry | 1.647 | 1.171 | 0.851 | 0.636
80000 kPa, Falling or rolling sphere viscometry | 1.797 | 1.282 | 0.934 | 0.699
100000 kPa, Falling or rolling sphere viscometry | 1.955 | 1.392 | 1.015 | 0.763

CCO [ethanol] + CCCCCCC
viscosity [mPa·s], [2]
Settings | 293.15 K | 313.15 K | 333.15 K | 353.15 K
100 kPa, Capillary tube (Ostwald / Ubbelohde) method | 1.194 | 0.826 | 0.59 | –
20000 kPa, Falling or rolling sphere viscometry | 1.344 | 0.948 | 0.683 | 0.51
40000 kPa, Falling or rolling sphere viscometry | 1.494 | 1.059 | 0.769 | 0.574
60000 kPa, Falling or rolling sphere viscometry | 1.647 | 1.171 | 0.851 | 0.636
80000 kPa, Falling or rolling sphere viscometry | 1.797 | 1.282 | 0.934 | 0.699
100000 kPa, Falling or rolling sphere viscometry | 1.955 | 1.392 | 1.015 | 0.763

CCCCCCC [heptane]
viscosity [mPa·s], [1]
Settings | 293.15 K | 313.15 K | 333.15 K | 353.15 K
100 kPa, Capillary tube (Ostwald / Ubbelohde) method | 0.41 | 0.333 | 0.276 | 0.232
20000 kPa, Falling or rolling sphere viscometry | 0.509 | 0.408 | 0.336 | 0.289
40000 kPa, Falling or rolling sphere viscometry | 0.604 | 0.487 | 0.402 | 0.346
60000 kPa, Falling or rolling sphere viscometry | 0.706 | 0.57 | 0.472 | 0.401
80000 kPa, Falling or rolling sphere viscometry | 0.817 | 0.658 | 0.546 | 0.458
100000 kPa, Falling or rolling sphere viscometry | 0.937 | 0.751 | 0.623 | 0.521
